Measured values taken from US12351556B2, “Pyridin-2(1H)one derivatives, their preparation and their use for the treatment of pain” (INSTITUT NATIONAL DE LA SANTE ET DE LA RECHERCHE MEDICALE …, priority 2019, dated 2025).

How the values were obtained:
Test in all cases: ICKP protein kinase panel screening
Assay type in all cases: biochemical
Details in all cases: duplicate assays, read-out: mean % residual activity
[1] = molecular target: BTK (Homo sapiens (Human), UniProt Q06187)
Experimental: (§1) FIG. 3 illustrates the human kinome. Compound 69 was evaluated at the International Center For Kinase Profiling (ICKP, Dundee, Scotland) toward a panel of 50 protein kinases that provide a representative sampling of the human kinome. The results were expressed as the mean percentage of residual activity at 10 μM concentration (duplicate assays). Small disks: ≥65%, larger disk: 19%. The black square indicates the kinome region containing protein kinases evaluated in a second screening (FIG. 4, Table 4). The tree was generated using the Kinome Render software, and the illustration reproduced courtesy of Cell Signaling Technology, Inc. (www.cellsignal.com) Chartier et al PeerJ 2013, 1:e126.
(§2) Results are expressed as the mean percentage of residual activity at 10 μM (Table 3) or 1 μM (Table 4). They are illustrated on FIGS. 3 and 4.
(§3) Studies were undertaken to identify the possible biological target(s) of compound 69. The activation in neurons of PK such as PKCγ, ERK or p38 MAPK can contribute to pain hypersensitivity. Therefore, it was decided to screen compound 69 toward a panel of 50 PKs that provide a representative sampling of the human kinome (FIG. 3, Table 3) (Biochem. J. 2007, 408, 297-315). In this panel, p38α MAPK was identified as the privileged target, with 19% of kinase residual activity at 10 μM compound concentration.

[2] = molecular target: CAMK1 (Homo sapiens (Human), UniProt Q14012)
Experimental: as §1, §2, §3

[3] = molecular target: CAMKKb (Homo sapiens (Human), UniProt Q96RR4)
Experimental: as §1, §2, §3

[4] = molecular target: CK1δ (Homo sapiens (Human), UniProt P48730)
Experimental: as §1, §2, §3

[5] = molecular target: DYRK1A (Homo sapiens (Human), UniProt Q13627)
Experimental: as §1, §2, §3

[6] = molecular target: EF2K (Homo sapiens (Human), UniProt O00418)
Experimental: as §1, §2, §3

[7] = molecular target: GSK3b (Homo sapiens (Human), UniProt P49841)
Experimental: as §1, §2, §3

[8] = molecular target: HER4 (Homo sapiens (Human), UniProt Q15303)
Experimental: as §1, §2, §3

[9] = molecular target: HIPK2 (Homo sapiens (Human), UniProt Q9H2X6)
Experimental: as §1, §2, §3

[10] = molecular target: IGF-1R (Homo sapiens (Human), UniProt P08069)
Experimental: as §1, §2, §3

[11] = molecular target: IRAK4 (Homo sapiens (Human), UniProt Q9NWZ3)
Experimental: as §1, §2, §3

[12] = molecular target: JAK3 (Homo sapiens (Human), UniProt P52333)
Experimental: as §1, §2, §3

[13] = molecular target: LKB1 (Homo sapiens (Human), UniProt Q15831)
Experimental: as §1, §2, §3

[14] = molecular target: Lck (Homo sapiens (Human), UniProt P06239)
Experimental: as §1, §2, §3

[15] = molecular target: MARK3 (Homo sapiens (Human), UniProt P27448)
Experimental: as §1, §2, §3

[16] = molecular target: MST2 (Homo sapiens (Human), UniProt Q13188)
Experimental: as §1, §2, §3

[17] = molecular target: NEK6 (Homo sapiens (Human), UniProt Q9HC98)
Experimental: as §1, §2, §3

[18] = molecular target: PAK4 (Homo sapiens (Human), UniProt O96013)
Experimental: as §1, §2, §3

[19] = molecular target: PDK1 (Homo sapiens (Human), UniProt O15530)
Experimental: as §1, §2, §3

[20] = molecular target: PIM1 (Homo sapiens (Human), UniProt P11309)
Experimental: as §1, §2, §3

[21] = molecular target: PKBa (Homo sapiens (Human), UniProt P31749)
Experimental: as §1, §2, §3

[22] = molecular target: PKCa (Homo sapiens (Human), UniProt P17252)
Experimental: as §1, §2, §3

[23] = molecular target: PRK2 (Homo sapiens (Human), UniProt Q16513)
Experimental: as §1, §2, §3

[24] = molecular target: RIPK2 (Homo sapiens (Human), UniProt O43353)
Experimental: as §1, §2, §3

[25] = molecular target: RSK1 (Homo sapiens (Human), UniProt Q15418)
Experimental: as §1, §2, §3

[26] = molecular target: S6K1 (Homo sapiens (Human), UniProt P23443)
Experimental: as §1, §2, §3

[27] = molecular target: SGK1 (Homo sapiens (Human), UniProt O00141)
Experimental: as §1, §2, §3

[28] = molecular target: SRPK1 (Homo sapiens (Human), UniProt Q96SB4)
Experimental: as §1, §2, §3

[29] = molecular target: SYK (Homo sapiens (Human), UniProt P43405)
Experimental: as §1, §2, §3

[30] = molecular target: SmMLCK (Homo sapiens (Human), UniProt Q15746)
Experimental: as §1, §2, §3

[31] = molecular target: Src (Homo sapiens (Human), UniProt P12931)
Experimental: as §1, §2, §3

[32] = molecular target: TAK1 (Homo sapiens (Human), UniProt O43318)
Experimental: as §1, §2, §3

[33] = molecular target: TBK1 (Homo sapiens (Human), UniProt Q9UHD2)
Experimental: as §1, §2, §3

[34] = molecular target: TTK (Homo sapiens (Human), UniProt P33981)
Experimental: as §1, §2, §3

[35] = molecular target: TrkA (Homo sapiens (Human), UniProt P04629)
Experimental: as §1, §2, §3

PAK4, sequence (O96013 whole entry): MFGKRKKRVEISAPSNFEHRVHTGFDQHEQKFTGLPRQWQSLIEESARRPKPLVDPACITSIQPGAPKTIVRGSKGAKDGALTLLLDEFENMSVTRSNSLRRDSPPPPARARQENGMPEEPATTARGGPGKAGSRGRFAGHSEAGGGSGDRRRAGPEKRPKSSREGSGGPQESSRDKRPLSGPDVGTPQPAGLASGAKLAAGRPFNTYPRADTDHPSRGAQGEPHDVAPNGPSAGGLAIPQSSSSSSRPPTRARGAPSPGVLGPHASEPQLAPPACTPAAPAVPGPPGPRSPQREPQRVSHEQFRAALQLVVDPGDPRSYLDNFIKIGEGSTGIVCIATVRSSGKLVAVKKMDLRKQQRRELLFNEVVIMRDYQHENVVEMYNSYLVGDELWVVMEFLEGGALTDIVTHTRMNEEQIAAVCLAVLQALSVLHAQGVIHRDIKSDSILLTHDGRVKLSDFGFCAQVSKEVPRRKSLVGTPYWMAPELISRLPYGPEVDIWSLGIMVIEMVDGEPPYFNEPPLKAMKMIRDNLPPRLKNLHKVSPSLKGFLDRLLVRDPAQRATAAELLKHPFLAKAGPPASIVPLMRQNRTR
TAK1, sequence (O43318 1-303): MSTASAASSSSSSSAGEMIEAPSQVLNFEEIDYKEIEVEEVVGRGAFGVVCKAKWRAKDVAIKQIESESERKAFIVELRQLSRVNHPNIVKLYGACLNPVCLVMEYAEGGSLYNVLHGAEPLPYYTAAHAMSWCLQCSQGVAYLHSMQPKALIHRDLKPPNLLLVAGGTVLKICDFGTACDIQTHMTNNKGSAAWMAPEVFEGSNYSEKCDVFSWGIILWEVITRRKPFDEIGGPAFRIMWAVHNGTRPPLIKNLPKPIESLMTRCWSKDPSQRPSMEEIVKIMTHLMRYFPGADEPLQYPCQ
TAK1, sequence (Q15750 437-504 partner): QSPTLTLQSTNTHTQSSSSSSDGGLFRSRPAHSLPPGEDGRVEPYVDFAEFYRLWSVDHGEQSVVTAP
CAMK1, sequence (Q14012 whole entry): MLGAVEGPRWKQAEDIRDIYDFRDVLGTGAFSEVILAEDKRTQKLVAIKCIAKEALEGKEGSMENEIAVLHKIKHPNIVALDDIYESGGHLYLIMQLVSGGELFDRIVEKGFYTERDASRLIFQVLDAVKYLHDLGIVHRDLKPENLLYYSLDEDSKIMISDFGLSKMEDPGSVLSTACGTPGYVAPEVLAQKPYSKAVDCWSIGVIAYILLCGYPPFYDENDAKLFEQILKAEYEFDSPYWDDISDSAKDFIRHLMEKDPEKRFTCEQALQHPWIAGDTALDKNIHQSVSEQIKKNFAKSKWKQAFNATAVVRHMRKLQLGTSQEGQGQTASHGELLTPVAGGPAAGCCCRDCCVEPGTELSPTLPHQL
GSK3b, sequence (P49841 whole entry): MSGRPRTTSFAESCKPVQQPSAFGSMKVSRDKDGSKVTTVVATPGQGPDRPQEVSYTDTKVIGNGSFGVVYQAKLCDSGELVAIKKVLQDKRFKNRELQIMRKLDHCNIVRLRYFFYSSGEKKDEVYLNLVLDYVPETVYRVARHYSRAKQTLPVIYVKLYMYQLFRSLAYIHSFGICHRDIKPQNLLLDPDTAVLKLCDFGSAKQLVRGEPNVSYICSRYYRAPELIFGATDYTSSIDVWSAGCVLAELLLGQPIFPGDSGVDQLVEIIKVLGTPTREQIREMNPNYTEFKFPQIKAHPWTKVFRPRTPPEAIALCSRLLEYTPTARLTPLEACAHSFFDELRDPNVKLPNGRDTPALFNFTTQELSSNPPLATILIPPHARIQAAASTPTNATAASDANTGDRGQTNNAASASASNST
MST2, sequence (Q13188 whole entry): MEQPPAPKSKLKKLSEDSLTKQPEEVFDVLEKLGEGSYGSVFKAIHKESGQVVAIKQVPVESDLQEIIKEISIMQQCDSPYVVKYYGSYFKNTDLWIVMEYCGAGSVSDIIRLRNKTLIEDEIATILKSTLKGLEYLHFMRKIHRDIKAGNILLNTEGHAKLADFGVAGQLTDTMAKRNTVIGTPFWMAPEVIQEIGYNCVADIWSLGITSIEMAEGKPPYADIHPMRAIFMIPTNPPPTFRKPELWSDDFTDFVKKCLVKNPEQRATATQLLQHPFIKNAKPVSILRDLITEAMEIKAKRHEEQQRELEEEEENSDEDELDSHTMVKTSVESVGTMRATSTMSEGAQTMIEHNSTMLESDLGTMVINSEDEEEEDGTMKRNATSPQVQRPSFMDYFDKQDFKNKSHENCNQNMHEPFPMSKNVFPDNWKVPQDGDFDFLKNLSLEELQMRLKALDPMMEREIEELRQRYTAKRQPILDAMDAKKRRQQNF
PIM1, sequence (P11309 whole entry): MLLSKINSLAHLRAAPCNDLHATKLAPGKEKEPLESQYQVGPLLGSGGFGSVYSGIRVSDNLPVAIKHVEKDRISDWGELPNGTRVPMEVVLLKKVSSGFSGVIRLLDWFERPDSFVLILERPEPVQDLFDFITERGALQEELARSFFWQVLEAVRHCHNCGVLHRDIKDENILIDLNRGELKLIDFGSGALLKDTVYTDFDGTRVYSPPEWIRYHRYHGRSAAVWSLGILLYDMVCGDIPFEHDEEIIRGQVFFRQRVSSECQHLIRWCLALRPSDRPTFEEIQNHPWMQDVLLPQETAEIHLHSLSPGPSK
HER4, sequence (Q15303 26-1308): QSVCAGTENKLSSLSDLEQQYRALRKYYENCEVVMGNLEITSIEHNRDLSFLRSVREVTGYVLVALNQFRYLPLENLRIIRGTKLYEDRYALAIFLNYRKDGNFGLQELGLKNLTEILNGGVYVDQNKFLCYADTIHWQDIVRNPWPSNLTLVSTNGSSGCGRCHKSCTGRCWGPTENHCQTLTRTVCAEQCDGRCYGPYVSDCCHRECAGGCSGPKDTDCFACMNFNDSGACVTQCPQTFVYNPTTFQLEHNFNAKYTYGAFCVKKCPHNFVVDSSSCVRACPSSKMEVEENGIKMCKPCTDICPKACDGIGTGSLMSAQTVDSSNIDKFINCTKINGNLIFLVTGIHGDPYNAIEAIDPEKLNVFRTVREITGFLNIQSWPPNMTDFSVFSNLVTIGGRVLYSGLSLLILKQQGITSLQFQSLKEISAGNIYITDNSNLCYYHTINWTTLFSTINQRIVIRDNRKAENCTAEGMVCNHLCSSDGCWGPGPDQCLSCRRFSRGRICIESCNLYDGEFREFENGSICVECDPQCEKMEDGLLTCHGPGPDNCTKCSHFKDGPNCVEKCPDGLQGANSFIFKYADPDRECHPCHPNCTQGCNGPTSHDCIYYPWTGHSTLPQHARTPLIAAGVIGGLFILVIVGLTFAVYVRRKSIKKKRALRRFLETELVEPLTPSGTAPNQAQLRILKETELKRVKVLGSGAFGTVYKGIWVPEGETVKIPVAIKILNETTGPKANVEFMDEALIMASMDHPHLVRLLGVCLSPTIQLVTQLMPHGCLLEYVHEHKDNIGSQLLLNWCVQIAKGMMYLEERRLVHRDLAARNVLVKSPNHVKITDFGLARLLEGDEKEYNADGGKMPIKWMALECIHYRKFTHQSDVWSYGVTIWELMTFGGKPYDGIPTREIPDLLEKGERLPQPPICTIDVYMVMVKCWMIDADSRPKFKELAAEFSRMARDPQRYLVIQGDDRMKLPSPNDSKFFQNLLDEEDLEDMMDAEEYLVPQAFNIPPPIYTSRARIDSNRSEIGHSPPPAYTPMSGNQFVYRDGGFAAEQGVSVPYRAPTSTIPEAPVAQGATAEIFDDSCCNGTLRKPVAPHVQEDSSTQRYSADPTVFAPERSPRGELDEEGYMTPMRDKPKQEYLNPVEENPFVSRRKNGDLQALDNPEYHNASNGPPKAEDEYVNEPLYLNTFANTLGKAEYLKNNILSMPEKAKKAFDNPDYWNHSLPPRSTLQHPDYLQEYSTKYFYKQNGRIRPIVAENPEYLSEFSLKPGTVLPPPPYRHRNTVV
TBK1, sequence (Q9UHD2 whole entry): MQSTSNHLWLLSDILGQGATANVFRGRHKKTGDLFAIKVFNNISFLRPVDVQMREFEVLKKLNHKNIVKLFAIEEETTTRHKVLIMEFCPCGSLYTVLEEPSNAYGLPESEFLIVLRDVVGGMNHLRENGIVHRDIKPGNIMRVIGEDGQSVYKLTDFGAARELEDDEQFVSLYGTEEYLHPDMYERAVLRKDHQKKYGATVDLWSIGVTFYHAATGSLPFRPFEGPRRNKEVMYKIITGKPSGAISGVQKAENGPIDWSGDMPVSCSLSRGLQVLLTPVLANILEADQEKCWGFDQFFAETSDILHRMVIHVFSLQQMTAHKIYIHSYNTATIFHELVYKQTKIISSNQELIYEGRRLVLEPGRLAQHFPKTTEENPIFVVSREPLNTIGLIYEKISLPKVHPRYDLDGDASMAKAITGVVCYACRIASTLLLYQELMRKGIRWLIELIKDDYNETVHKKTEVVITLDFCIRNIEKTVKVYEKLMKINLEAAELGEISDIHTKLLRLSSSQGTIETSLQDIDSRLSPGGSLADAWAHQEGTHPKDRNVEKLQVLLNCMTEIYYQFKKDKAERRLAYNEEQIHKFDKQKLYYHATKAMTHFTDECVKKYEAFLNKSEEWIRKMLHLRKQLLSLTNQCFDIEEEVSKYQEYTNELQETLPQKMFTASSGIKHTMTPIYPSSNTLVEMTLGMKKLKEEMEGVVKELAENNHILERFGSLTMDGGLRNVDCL
CK1δ, sequence (P48730 whole entry): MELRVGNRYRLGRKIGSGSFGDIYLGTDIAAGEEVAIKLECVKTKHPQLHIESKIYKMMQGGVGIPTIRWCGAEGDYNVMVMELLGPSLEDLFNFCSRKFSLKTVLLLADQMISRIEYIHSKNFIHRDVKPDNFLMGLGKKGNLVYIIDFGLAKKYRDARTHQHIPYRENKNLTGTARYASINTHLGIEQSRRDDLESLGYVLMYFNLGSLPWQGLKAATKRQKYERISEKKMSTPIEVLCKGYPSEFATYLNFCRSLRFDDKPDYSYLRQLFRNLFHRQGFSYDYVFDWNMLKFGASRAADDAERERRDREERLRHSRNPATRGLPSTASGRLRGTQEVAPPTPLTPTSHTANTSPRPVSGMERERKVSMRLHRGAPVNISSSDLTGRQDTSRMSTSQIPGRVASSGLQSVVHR

O=c1[nH]cc(Nc2ccccc2)cc1-c1ccccc1Br [Compound 69, 3-(2-Bromophenyl)-5-(phenylamino)pyridin-2(1H)-one]
remaining activity at 10 µM [1]: 94%
remaining activity at 10 µM [2]: 96%
remaining activity at 10 µM [3]: 95%
remaining activity at 10 µM [4]: 98%
remaining activity at 10 µM [5]: 66%
remaining activity at 10 µM [6]: 116%
remaining activity at 10 µM [7]: 105%
remaining activity at 10 µM [8]: 98%
remaining activity at 10 µM [9]: 96%
remaining activity at 10 µM [10]: 96%
remaining activity at 10 µM [11]: 98%
remaining activity at 10 µM [12]: 107%
remaining activity at 10 µM [13]: 83%
remaining activity at 10 µM [14]: 108%
remaining activity at 10 µM [15]: 102%
remaining activity at 10 µM [16]: 91%
remaining activity at 10 µM [17]: 102%
remaining activity at 10 µM [18]: 89%
remaining activity at 10 µM [19]: 103%
remaining activity at 10 µM [20]: 95%
remaining activity at 10 µM [21]: 107%
remaining activity at 10 µM [22]: 116%
remaining activity at 10 µM [23]: 90%
remaining activity at 10 µM [24]: 90%
remaining activity at 10 µM [25]: 94%
remaining activity at 10 µM [26]: 87%
remaining activity at 10 µM [27]: 89%
remaining activity at 10 µM [28]: 81%
remaining activity at 10 µM [29]: 79%
remaining activity at 10 µM [30]: 100%
remaining activity at 10 µM [31]: 93%
remaining activity at 10 µM [32]: 68%
remaining activity at 10 µM [33]: 89%
remaining activity at 10 µM [34]: 81%
remaining activity at 10 µM [35]: 88%
